Measured values taken from patent US7919481B2, “Inositol pyrophosphates, and methods of use thereof” (NormOxys, Inc., priority 2002, dated 2011).
Several values for one entry are separate records, joined by “and”; a condition that tells them apart may be missing. Equal values may be shown once. Entries after “also recorded” stand apart in the source; their conditions may differ.

How the values were obtained:
[1] = tested on: RBC; assay: Blood counts of orally treated mice; type: in vivo, C57BL/6 mice; settings: day 10, single mice; oral 27 mM for 4 days
[2] = tested on: circulating RBC; assay: Oral administration in drinking water, P50 of circulating RBC; type: in vivo, C57BL/6 mice; settings: for P50 10 d %: P50 shift on day 10, single mice
[3] = tested on: RBC; assay: Blood counts of orally treated mice; type: in vivo, C57BL/6 mice; settings: for RBC × 10^6/mm3: day 7, single mice, oral 27 mM for 4 days
Source text: Blood from mice, having ingested kf111 or IHP in water (for 4 days) or water only was collected on day 0, 7 and 11, in order to assess any differences in the blood count (and the amount of erythropoietin in the sera) of treated and control mice. […] Erythropoietin assays in all mice sera will be reported soon.

[4] = tested on: human RBCs; settings: IHP encapsulated in human RBCs by continuous-flow electroporation; cited from earlier work
[5] = constant concentration 22 mM, human serum/1-octanol; cited from earlier work
[6] = Blood counts and serum electrolytes of iv treated piglets; type: in vivo, piglet
Source text: Blood from the 2 piglets, having received kf111 (1 g/kg body weight) was collected before injection, 2 hrs after, and daily over a period of 14 days after injection, in order to assess any differences in the blood counts of treated and non treated piglets. The following conclusions for piglets having received 1 g kf111 per kg body weight can be drawn: • 1. […] Increasing numbers of reticulocytes were counted in blood samples of the injected animals taken 5-14 days after injection (up to 3.0% on day 14). • 4.
Blood was taken from the heart of the dead animals for the determination of blood counts as well as the amount of sodium, potassium and calcium in the sera. All numbers of blood cells (hematocrit, white blood cells etc.) were halved. The amount of potassium and calcium was normal, while sodium was doubled (before injection: 120-140 mmol/L; after injection: 245 mmol/L). Apparently, the large amount of sodium in kf111 (6 Na^+/molecule) caused the death of the animals. It appears that up to 1 g kf111 per kg body weight can be injected iv, (if injected slowly) without harmful effects for the animals. […] The piglets were thirsty after the treatment. *a second piglets was injected with kf111 at this concentration, after 2 piglets had died after iv injection of 1.2 g kf111 (or even more) per kg body weight. • 2. Higher amounts of kf111, injected via iv, killed the animals. • 3. A 1 g kf111 per kg body weight—injection is necessary to cause a significant right shift of the P50 value (up to 20%). • 4. […] In piglets having received 1 g of kf111/kg body weight, a tendency to the decrease in hematocrit was observed. • 6. […] The number of reticulocytes decreased slightly 24 to 72 hrs after injection (from 1.5% to 0.5%). Starting with day 3 after injection of the allosteric effector, the number of reticulocytes increased by about 3% for a period of 14 days.

[7] = tested on: whole blood; assay: In vitro incubation of whole blood of three species, summary statements; type: cell-based, human, mouse and pig
Protocol: (§1) As usual, pH's for the compound-solutions were adjusted to ˜7.0, osmolarities for both solutions were determined (325-373 mOsM) prior to effectors, and whole blood volumes at 1:1 ratios were incubated.

[8] = tested on: C57BL/6 mice; assay: Tolerability of oral administration; type: in vivo; settings: 27 mM in drinking water, 4 days
Protocol: The sodium salt of the tri-pyrophosphate derivative of IHP (kf111) was dissolved in drinking (not deionized) water at a 20 g/L-concentration (=27 mM) and offered for drinking ad libitum. As in all experiments performed before, pH was adjusted to ˜7.0.
Twelve C57BL/6 mice drank kf111 over 4 days ([…]). Three control mice drank either pure water, or a solution of IHP (inositol hexaphosphate) at the same concentration and pH as kf111 (4 mice). […] Blood was collected from the tail vein of the 19 C57BL/6 mice on day 0 (before treatment started), 1, 2, 4, 6, 7, 8, 10, 11 and 12, in order to measure P50 values.

[9] = tested on: piglets; assay: Tolerability / lethality of iv injection in piglets; type: in vivo, piglet
Protocol: (§2) An in vivo-experiment was performed on one 8 week-old normal piglet (body weight: 17 kg). The piglet was anaesthesized with 5% Isoflurane, 0.7 L/min N2O and 2.0 L/min O2 for 20-30 minutes, when kf111 was injected, or blood was taken from the ear vein, respectively. The compound injected iv at a concentration of 27 g kf111/100 ml water (volume injected: 63 ml, pH 6.5, containing 17 g kf111=1 g/1 kg body weight) was not harmful to the animal, when injected into the piglet's ear vein over at least 10 minutes.
(§3) Iv injection of 1 g kf111/kg body weight caused a significant right shift of the P50-value (up to 20%) in porcine RBCs. An almost saturated kf111 solution, pH 6.7, was injected intravenously into two piglets (both of ˜18 kg body weight) (27 g kf111/100 ml=1.5 g/kg body weight) over 20 minutes.

[10] = Toxicity, general statements on the biological experiments; type: in vivo
[11] = tested on: pig whole blood; assay: In vitro P50 in whole blood after incubation with effector; type: cell-based; settings: effector 60 mM
Protocol: as §1

[12] = tested on: human whole blood; assay: as above; type: cell-based; settings: effector 60 mM
Protocol: as §1

[13] = tested on: mouse whole blood; assay: as above; type: cell-based; settings: effector 60 mM
Protocol: as §1

[14] = tested on: circulating RBC; assay: P50 shift of circulating RBC after (intraperitoneal) injection in mice; settings: for P50 Shift % 2 h, Mean +/− SD / P50 Shift % 24 h, Mean +/− SD: 5 animals; for P50 Shift % 2 h / P50 Shift % 24 h: single animals
[15] = tested on: porcine RBCs; assay: Intravenous injection in piglets, P50 of blood; type: in vivo, piglet; settings: iv injection of 1 g/kg body weight; maximum
Protocol: as §2, §3

[16] = tested on: C57BL/6 mice; assay: Tolerability of intraperitoneal injection in mice; type: in vivo
[17] = dead piglets after lethal iv dose

## O=P(O)(O)O[C@H]1[C@H](OP(=O)(O)O)[C@@H](OP(=O)(O)O)[C@H](OP(=O)(O)O)[C@@H](OP(=O)(O)O)[C@H]1OP(=O)(O)O [IHP, inositol hexaphosphate, reference compound]
[1]
  RBC × 10^6/mm3: 10.77 × 10^6/mm3
[2]; P50 shift on day 7, single mice, oral 27 mM for 4 days
  P50 7 d %: 3%
[2]; oral 27 mM for 4 days
  P50 10 d %: 0%
[2]; oral in drinking water, same concentration as kf111
  shift of the ODC: absence of shift
[3]
  RBC × 10^6/mm3: 9.6 × 10^6/mm3
[4]
  P50 of IHP-modified RBCs: approximately 50 torr
[5]
  equiv of ammonium ions required to reach Kos(in serum) of 1: 8 equiv

## O=P1([O-])OP(=O)([O-])O[C@H]2[C@H](O1)[C@@H]1OP(=O)([O-])OP(=O)([O-])O[C@@H]1[C@H]1OP(=O)([O-])OP(=O)([O-])O[C@H]21.[Na+].[Na+].[Na+].[Na+].[Na+].[Na+] [kf111, Hexasodium Salt of Myo-inositol 1,6:2,3:4,5-Tripyrophosphate]
[6]; 1 g/kg iv
  number of other cells such as white blood cells: no major differences
[6]; 1 g/kg iv, day 14 (samples 5-14 days after injection), maximum
  reticulocytes: up to 3.0%
[6]; 1 g/kg iv, first 3 days (24 to 72 hrs) after injection
  reticulocytes after decrease: 0.5%
[6]; 1 g/kg iv, first days after injection
  hematocrit and number of RBC: slight decrease
[6]; 1 g/kg iv, starting with day 3, for a period of 14 days
  increase of the number of reticulocytes: about 3%
[6]; [17]
  amount of potassium and calcium in sera: normal
  numbers of blood cells (hematocrit, white blood cells etc.): halved
[6]; dead piglets, before injection 120-140 mmol/L
  sodium in sera after injection: 245 mmol/L
[1]
  RBC × 10^6/mm3: 9.35 × 10^6/mm3 and 8.60 × 10^6/mm3 and 8.95 × 10^6/mm3 and 8.88 × 10^6/mm3 and 8.70 × 10^6/mm3 and 8.73 × 10^6/mm3 and 7.65 × 10^6/mm3 and 7.80 × 10^6/mm3
[7]; in vitro incubation with whole blood
  lysis of RBCs: never occurred; also recorded: no lysis of RBCs was observed
[7]; whole blood of human, mouse and pig, 60 mM
  right shift in the Hb-O2 dissociation curve, all blood samples: up to 40%
[2]; oral 27 mM for 4 days
  P50 10 d %: 10% and 6% and 12% and 16% and 8% and 11% and 9%
[2]; oral, 20 g/L (27 mM) in drinking water over 4 days, maximum
  right shift of P50: up to 31%
[8]
  harmfulness when applied orally: not harmful
[9]; 1 g/kg body weight, injected slowly (at least 10 min)
  harmfulness of iv injection: not harmful
[9]; 27 g/100 ml, 1.5 g/kg planned over 20 minutes, two piglets
  outcome of iv injection of almost saturated solution: Both piglets died
[9]; if injected slowly
  dose that can be injected iv without harmful effects: up to 1 g kf111 per kg body weight
[9]; iv, saturated solution
  dose received at which piglets died: < 1.3 g/kg body weight
[3]
  RBC × 10^6/mm3: 6.60 × 10^6/mm3 and 5.73 × 10^6/mm3 and 6.35 × 10^6/mm3 and 5.64 × 10^6/mm3 and 5.45 × 10^6/mm3 and 8.76 × 10^6/mm3 and 7.70 × 10^6/mm3 and 6.54 × 10^6/mm3
[3]; mice having ingested the compound for 4 days
  number of RBC: reduced significantly
[3]; treated vs control groups
  number of white blood cells: no major differences
[10]; even in a concentration of 160 mM
  toxicity: no toxicity
[10]; general statement
  toxicity / tolerability: no toxicity and excellent tolerability
[11]; 1:1
  P50 Increase %: 40%
[11]; 1:1, control 32.2
  P50 mm Hg: 45.2 mm Hg
[12]; 1:1
  P50 Increase %: 39%
[12]; 1:1, control 22.1
  P50 mm Hg: 30.8 mm Hg
[13]; 1:1
  P50 Increase %: 29%
[13]; 1:1, control 36.7
  P50 mm Hg: 47.4 mm Hg
[14]; after ip injection
  right shift of the ODC of circulating RBC, % of the basal value: 31%
[14]; ip 45 mM
  P50 Shift % 2 h, Mean +/− SD: 11.8 +/− 1.16%
  P50 Shift % 2 h: 13% (2×) and 10% and 12% and 11%
  P50 Shift % 24 h, Mean +/− SD: 13.6 +/− 1.02%
  P50 Shift % 24 h: 14% (2×) and 12% and 13% and 15%
[14]; ip 60 mM
  P50 Shift % 2 h, Mean +/− SD: 16.9 +/− 3.48%
  P50 Shift % 2 h: 12% and 14% and 17% and 21% and 20.5%
  P50 Shift % 24 h, Mean +/− SD: 17.2 +/− 2.1%
  P50 Shift % 24 h: 14% and 16% and 17% and 20% and 19%
[14]; ip 120 mM
  P50 Shift % 2 h, Mean +/− SD: 26.0 +/− 2.28%
  P50 Shift % 2 h: 28% and 29% and 24% and 26% and 23%
  P50 Shift % 24 h, Mean +/− SD: 24.8 +/− 2.7%
  P50 Shift % 24 h: 28% (2×) and 22% (2×) and 24%
[14]; ip 150 mM
  P50 Shift % 2 h, Mean +/− SD: 27.0 +/− 1.78%
  P50 Shift % 2 h: 26% (2×) and 28% and 30% and 25%
  P50 Shift % 24 h, Mean +/− SD: 25.8 +/− 2.78%
  P50 Shift % 24 h: 25% and 26% and 31% and 24% and 23%
[15]
  right shift of the P50-value: up to 20%
[16]; concentration of (up to) 120 mM
  tolerability in mice: well tolerated
[16]; ip, concentrations up to 150 mM
  tolerability in mice: well tolerated
